Values after ≈ are worked out from the molar mass of the structure shown. Read-outs that look alike come from different tables or passages of the source. Numbered stars: 1 amine (or outer) side, 2 acyl side, 3 side chain; on linkers, the order of the positions; unused ones are H or OH. Bridge positions count the residues as written; N and C are the ends. Square brackets hold non-standard residues; d marks the D form. Peptide text beside a SMILES is read from it. * marks the point of attachment. Piperazine(2S-CO,4-Me) = CN1CCN[C@H](C(=O)O)C1; Phe(3,5-Me2) = Cc1cc(C)cc(C[C@H](N)C(=O)O)c1; Phe(3-Me) = Cc1cccc(C[C@H](N)C(=O)O)c1; NH(4-Cl-2-F-phenyl) = Fc1cc(Cl)ccc1N*; Pro(4R-Me) = C[C@H]1CN[C@H](C(=O)O)C1; Hyp = O=C(O)[C@@H]1C[C@@H](O)CN1; NH(4-Me-phenyl) = Cc1ccc(N*)cc1; aThr = C[C@H](O)[C@H](N)C(=O)O; Pip = O=C(O)[C@@H]1CCCCN1; CO = O=C([*:1])[*:2]; X2 = Fc1cc(N*)ccc1Cl
Experiments:
S. aureus ATCC 29213 = assay: Minimal inhibitory concentration, microbroth dilution; assay type: cell-based; conditions: Staphylococcus aureus
Method in brief: (§1)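 Growth inhibition was scored visually after overnight aerobic culture at 37 °C in CLSI-style microdilution plates. Inocula contained about 10^5 cfu/mL, and compound concentrations descended in twofold steps from 200 μM.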

E. faecails = assay: as above; assay type: cell-based; conditions: Enterococcus faecalis
Method in brief: as §1

Sa-ClpP = target: T1, Sa-ClpP (Staphylococcus aureus, UniProt Q2G036); assay: ADEP displacement fluorescence polarization assay; assay type: binding, S. aureus; conditions: displacement of FP probe ADEP 2591 from Sa-ClpP
T1 construct: made in house; host or cells: E. coli BL21 (DE3)
Method in brief: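 Master mix of 15 μM Sa-ClpP and 50 nM TAMRA-labelled ADEP 2591 probe in Tris-HCl pH 8.0, 2% DMSO, was pre-equilibrated 1 h at RT, then compounds were added and incubated 120 min at RT. Polarization (ex 530, em 579 nm, mP) was normalised to 200 μM ADEP 2378 and DMSO controls and fitted by four-parameter regression, in triplicate.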

[1] = Plasma protein binding, rapid equilibrium dialysis; assay type: in vitro ADME, human; conditions: 10 μM
Method in brief: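 Compound spiked at 10 μM (0.1% DMSO) into human plasma, dialysed against DPBS pH 7.4 across 8 K MWCO RED membrane for 4 h at 37 °C with shaking. Both chambers quantified by LC-MS against warfarin internal standard; % free = buffer/plasma concentration ×100, % bound = 100 − % free.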

[2] = ATCC29213, MIC, read-out: Minimal Inhibitory Concentrations (μM) S. aureus ATCC 29213
[3] = MIC, read-out: Minimal Inhibitory Concentrations (μM) E. faecails

T1 sequence (Q2G036 whole entry): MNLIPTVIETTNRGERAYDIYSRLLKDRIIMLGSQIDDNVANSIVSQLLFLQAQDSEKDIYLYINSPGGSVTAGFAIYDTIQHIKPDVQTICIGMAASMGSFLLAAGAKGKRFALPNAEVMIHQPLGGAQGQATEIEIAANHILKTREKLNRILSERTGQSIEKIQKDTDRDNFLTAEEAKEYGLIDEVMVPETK

SMILES | MIC (S. aureus ATCC 29213; ATCC29213, read-out: Minimal Inhibitory Concentrations (μM) S. aureus ATCC 29213, MIC) [µM] | MIC (E. faecails; read-out: Minimal Inhibitory Concentrations (μM) E. faecails, MIC) [µM] | IC50 (Sa-ClpP) [µM] | Human ([1]; plasma binding, % Bound, human plasma) [%] | MIC (S. aureus ATCC 29213; [2]) [µM] | MIC (E. faecails; [3]) [µM] | Human ([1]; human, 4 h, pH 7.4) [%]
Cc1ccc(NC(=O)N[C@@H](Cc2cccc(C)c2)C(=O)N[C@@H]2C(=O)N3C[C@H](O)C[C@H]3C(=O)N3CCCC[C@H]3C(=O)N[C@@H](C)C(=O)N3C[C@H](C)C[C@H]3C(=O)O[C@H]2C)cc1 [Compound 26, (S)—N-((2R,6S,8AS,14AS,16R,20S,21S,23AS)-16-HYDROXY-2,6,21-TRIMETHYL-5,8,14,19,23-PENTAOXOOCTADECAHYDRO-1H,5H,14H,19H-PYRIDO[2,1-I]DIPYRROLO[2,1-C:2′,1′-L][1]OXA[4,7,10,13]TETRAAZACYCLOHEXADECIN-20-YL)-3-(M-TOLYL)-2-(3-(P-TOLYL)UREIDO)PROPANAMIDE] ({NH(4-Me-phenyl)-CO}-[Phe(3-Me)][aThr][Hyp][Pip]A[Pro(4R-Me)]; ester 2-C) | 0.313 (≈ 0.251 µg/mL) | 5 (≈ 4.01 µg/mL) | 4.26 ± 0.16 | 98.8 ± 0.1 |  |  | 
Cc1cc(C)cc(C[C@H](NC(=O)Nc2ccc(Cl)cc2F)C(=O)N[C@@H]2C(=O)N3CCC[C@H]3C(=O)N3CCCC[C@H]3C(=O)N[C@@H](C)C(=O)N3C[C@H](C)C[C@H]3C(=O)O[C@H]2C)c1 [Compound 4, (S)-2-(3-(4-CHLORO-2-FLUOROPHENYL)UREIDO)-3-(3,5-DIMETHYLPHENYL)-N-((2R,6S,8AS,14AS,20S,21S,23AS)-2,6,21-TRIMETHYL-5,8,14,19,23-PENTAOXOOCTADECAHYDRO-1H,5H,14H,19H-PYRIDO[2,1-I]DIPYRROLO[2,1-C:2′,1′-L][1]OXA[4,7,10,13]TETRAAZACYCLOHEXADECIN-20-YL)PROPANAMIDE] ({NH(4-Cl-2-F-phenyl)-CO}-[Phe(3,5-Me2)][aThr]P[Pip]A[Pro(4R-Me)]; ester 2-C) |  |  | 6.45 ± 0.4 |  | 0.625 (≈ 0.524 µg/mL) | 1.25 (≈ 1.05 µg/mL) | 99.8 ± 0.2
Cc1cccc(C[C@H](NC(=O)Nc2ccc3c(c2)OCO3)C(=O)N[C@H]2COC(=O)[C@@H]3C[C@@H](C)CN3C(=O)[C@H](C)NC(=O)[C@@H]3CCCCN3C(=O)[C@@H]3CCCN3C2=O)c1 [Compound 23, (S)-2-(3-(BENZO[D][1,3]DIOXOL-5-YL)UREIDO)-N-((2R,6S,8AS,14AS,20S,23AS)-2,6-DIMETHYL-5,8,14,19,23-PENTAOXOOCTADECAHYDRO-1H,5H,14H,19H-PYRIDO[2,1-I]DIPYRROLO[2,1-C:2′,1′-L][1]OXA[4,7,10,13]TETRAAZACYCLOHEXADECIN-20-YL)-3-(M-TOLYL)PROPANAMIDE] |  |  | 1.96 ± 0.12 |  | 1.25 (≈ 1 µg/mL) | 0.625 (≈ 0.501 µg/mL) | 97.1 ± 0.2
Cc1cccc(C[C@H](NC(=O)Nc2ccc(Cl)cc2F)C(=O)N[C@H]2COC(=O)[C@@H]3C[C@@H](C)CN3C(=O)[C@H](C)NC(=O)[C@@H]3CN(C)CCN3C(=O)[C@@H]3CCCN3C2=O)c1 [Compound 13, (S)-2-(3-(4-CHLORO-2-FLUOROPHENYL)UREIDO)-3-(M-TOLYL)-N-((6AS,12S,15AS,17R,21S,23AS)-2,17,21-TRIMETHYL-6,11,15,20,23-PENTAOXOOCTADECAHYDRO-2H,6H,11H,15H-PYRAZINO[2,1-I]DIPYRROLO[2,1-C:2′,1′-L][1]OXA[4,7,10,13]TETRAAZACYCLOHEXADECIN-12-YL)PROPANAMIDE] ({NH(4-Cl-2-F-phenyl)-CO}-[Phe(3-Me)]SP[Piperazine(2S-CO,4-Me)]A[Pro(4R-Me)]; ester 2-C) |  |  | 16.4 ± 0.8 |  | 1.25 (≈ 1.03 µg/mL) | 0.625 (≈ 0.516 µg/mL) | 97.0 ± 0.6
Cc1cccc(C[C@H](NC(=O)Nc2ccc3c(c2)OCCO3)C(=O)N[C@H]2COC(=O)[C@@H]3C[C@@H](C)CN3C(=O)[C@H](C)NC(=O)[C@@H]3CCCCN3C(=O)[C@@H]3CCCN3C2=O)c1 [Compound 22, (S)-2-(3-(2,3-DIHYDROBENZO[B][1,4]DIOXIN-6-YL)UREIDO)-N-((2R,6S,8AS,14AS,20S,23AS)-2,6-DIMETHYL-5,8,14,19,23-PENTAOXOOCTADECAHYDRO-1H,5H,14H,19H-PYRIDO[2,1-I]DIPYRROLO[2,1-C:2′,1′-L][1]OXA[4,7,10,13]TETRAAZACYCLOHEXADECIN-20-YL)-3-(M-TOLYL)PROPANAMIDE] |  |  | 4.12 ± 0.29 |  | 5 (≈ 4.08 µg/mL) | 1.25 (≈ 1.02 µg/mL) | 97.1 ± 0.2
Cc1cccc(C[C@H](NC(=O)Nc2ccc(Cl)cc2F)C(=O)N[C@H]2COC(=O)[C@@H]3C[C@@H](C)CN3C(=O)[C@H](C)NC(=O)[C@@H]3CCCCN3C(=O)[C@@H]3C[C@@H](O)CN3C2=O)c1 [Compound 10] |  |  | 4.65 ± 0.2 |  | 0.313 (≈ 0.259 µg/mL) | 0.313 (≈ 0.259 µg/mL) | 99.7 ± 0.2
Cc1cccc(C[C@H](NC(=O)Nc2ccc(Cl)cc2F)C(=O)N[C@@H]2C(=O)N3C[C@H](O)C[C@H]3C(=O)N3CCCC[C@H]3C(=O)N[C@@H](C)C(=O)N3C[C@H](C)C[C@H]3C(=O)O[C@H]2C)c1 [Compound 6, (S)-2-(3-(4-CHLORO-2-FLUOROPHENYL)UREIDO)-N-((2R,6S,8AS,14AS,16R,20S,21S,23AS)-16-HYDROXY-2,6,21-TRIMETHYL-5,8,14,19,23-PENTAOXOOCTADECAHYDRO-1H,5H,14H,19H-PYRIDO[2,1-I]DIPYRROLO[2,1-C:2′,1′-L][1]OXA[4,7,10,13]TETRAAZACYCLOHEXADECIN-20-YL)-3-(M-TOLYL)PROPANAMIDE] ({NH(4-Cl-2-F-phenyl)-CO}-[Phe(3-Me)][aThr][Hyp][Pip]A[Pro(4R-Me)]; ester 2-C) |  |  | 3 ± 0.2 |  | 0.078 (≈ 0.0655 µg/mL) | 0.078 (≈ 0.0655 µg/mL) | 99.7 ± 0
Cc1cccc(C[C@H](NC(=O)Nc2ccc(Cl)cc2F)C(=O)N[C@@H]2C(=O)N3CCC[C@H]3C(=O)N3CCCC[C@H]3C(=O)N[C@@H](C)C(=O)N3C[C@H](C)C[C@H]3C(=O)O[C@H]2C)c1 [Compound 3, (S)-2-(3-(4-CHLORO-2-FLUOROPHENYL)UREIDO)-3-(M-TOLYL)-N-((2R,6S,8AS,14AS,20S,21S,23AS)-2,6,21-TRIMETHYL-5,8,14,19,23-PENTAOXOOCTADECAHYDRO-1H,5H,14H,19H-PYRIDO[2,1-I]DIPYRROLO[2,1-C:2′,1′-L][1]OXA[4,7,10,13]TETRAAZACYCLOHEXADECIN-20-YL)PROPANAMIDE] ({NH(4-Cl-2-F-phenyl)-CO}-[Phe(3-Me)][aThr]P[Pip]A[Pro(4R-Me)]; ester 2-C) |  |  | 6.61 ± 0.28 |  | 0.156 (≈ 0.129 µg/mL) | 0.078 (≈ 0.0643 µg/mL) | 99.0 ± 0.1
Cc1cccc(C[C@H](NC(=O)Nc2ccc(Cl)c(F)c2)C(=O)N[C@H]2COC(=O)[C@@H]3C[C@@H](C)CN3C(=O)[C@H](C)NC(=O)[C@@H]3CN(C)CCN3C(=O)[C@@H]3CCCN3C2=O)c1 [Compound 14, (S)-2-(3-(4-CHLORO-3-FLUOROPHENYL)UREIDO)-3-(M-TOLYL)-N-((6AS,12S,15AS,17R,21S,23AS)-2,17,21-TRIMETHYL-6,11,15,20,23-PENTAOXOOCTADECAHYDRO-2H,6H,11H,15H-PYRAZINO[2,1-I]DIPYRROLO[2,1-C:2′,1′-L][1]OXA[4,7,10,13]TETRAAZACYCLOHEXADECIN-12-YL)PROPANAMIDE] ({X2-CO}-[Phe(3-Me)]SP[Piperazine(2S-CO,4-Me)]A[Pro(4R-Me)]; ester 2-C) |  |  | 5.19 ± 0.2 |  | 5 (≈ 4.13 µg/mL) | 1.25 (≈ 1.03 µg/mL) | 99.1 ± 0.2
Cc1cccc(C[C@H](NC(=O)Nc2ccc(Cl)cc2F)C(=O)N[C@@H]2C(=O)N3CCC[C@H]3C(=O)N3CCN(C)C[C@H]3C(=O)N[C@@H](C)C(=O)N3C[C@H](C)C[C@H]3C(=O)O[C@H]2C)c1 [Compound 11, (S)-2-(3-(4-CHLORO-2-FLUOROPHENYL)UREIDO)-N-((6AS,12S,13S,15AS,17R,21S,23AS)-2,13,17,21-TETRAMETHYL-6,11,15,20,23-PENTAOXOOCTADECAHYDRO-2H,6H,11H,15H-PYRAZINO[2,1-I]DIPYRROLO[2,1-C:2′,1′-L][1]OXA[4,7,10,13]TETRAAZACYCLOHEXADECIN-12-YL)-3-(M-TOLYL)PROPANAMIDE] ({NH(4-Cl-2-F-phenyl)-CO}-[Phe(3-Me)][aThr]P[Piperazine(2S-CO,4-Me)]A[Pro(4R-Me)]; ester 2-C) |  |  | 3.45 ± 0.2 |  | 0.078 (≈ 0.0655 µg/mL) | 0.078 (≈ 0.0655 µg/mL) | 97.9 ± 0.3

From US10570179B2, “Substituted urea depsipeptide analogs as activators of the CLPP endopeptidase” (priority 2016, dated 2020)
